Measurements from patent US11351151B2, “Compound having anticancer activity and preparation method and application” (3D Medicines (Beijing) Co., Ltd., priority 2016, dated 2022).
pIC50: −log10 of the molar value.

Columns and labels:
Assay in all cases: Cell proliferation assay (Alamar Blue)
Format in all cases: cell-based
[1] = test system: NCl-H1703; settings: 144 h; NCl-H1703 (lung cancer cells); 6 days
Outline: (§1)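 AlamarBlue fluorescence (ex 560, em 590 nm) after 6-day compound exposure; IC50 by four-parameter fit. Nine 3.16-fold dilutions, top 30 or 100 μM, duplicate wells. Log-phase cells plated at line-optimised density, 4 h pre-incubation.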

[2] = test system: SNU398; settings: Homo sapiens, SNU-398, 144 h; SNU398 liver cancer cell line; 6 days
Outline: as §1

[3] = test system: MFM-223; settings: Homo sapiens, 144 h; MFM-223 tumor cell line; 6 days
Outline: as §1

[4] = test system: HCCLM3; settings: Homo sapiens, 144 h; HCCLM3 tumor cell line; 6 days
Outline: as §1

[5] = test system: T.T; settings: Homo sapiens, TT, 144 h; T.T tumor cell line; 6 days
Outline: as §1

[6] = test system: JHH1; settings: 144 h; JHH1 liver cancer cell line; 6 days
Outline: as §1

[7] = test system: Alexander cells; settings: 144 h, liver cancer cell line, 6 days
Outline: as §1

[8] = test system: HLE; settings: Homo sapiens, 144 h; HLE liver cancer cell line; 6 days
Outline: as §1

[9] = test system: MG63; settings: Homo sapiens, MG-63, 144 h; MG63 tumor cell line; 6 days
Outline: as §1

[10] = test system: K562; settings: Homo sapiens, 144 h; K562 tumor cell line; 6 days
Outline: as §1

[11] = test system: SNU423; settings: Homo sapiens, SNU-423, 144 h; SNU423 liver cancer cell line; 6 days
Outline: as §1

[12] = test system: KM12; settings: Homo sapiens, 144 h; KM12 tumor cell line; 6 days
Outline: as §1

[13] = test system: KASUMI-1; settings: Homo sapiens, 144 h; KASUMI-1 (leukemia cells); 6 days
Outline: as §1

[14] = test system: HLF; settings: 144 h; HLF liver cancer cell line; 6 days
Outline: as §1

[15] = test system: SNU449; settings: Homo sapiens, SNU-449, 144 h; SNU449 liver cancer cell line; 6 days
Outline: as §1

[16] = test system: SNU182; settings: Homo sapiens, SNU-182, 144 h; SNU182 liver cancer cell line; 6 days
Outline: as §1

[17] = test system: SW620; settings: Homo sapiens, SW-620, 144 h; SW620 tumor cell line; 6 days
Outline: as §1

[18] = test system: SNU475; settings: Homo sapiens, SNU-475, 144 h; SNU475 liver cancer cell line; 6 days
Outline: as §1

[19] = test system: JHH6; settings: 144 h; JHH6 liver cancer cell line; 6 days
Outline: as §1

[20] = test system: HUH6; settings: Homo sapiens, HuH-6, 144 h; HUH6 liver cancer cell line; 6 days
Outline: as §1

[21] = test system: SNU886; settings: SNU-886, 144 h; SNU886 liver cancer cell line; 6 days
Outline: as §1

[22] = test system: HuTu80; settings: Homo sapiens, 144 h; HuTu80 tumor cell line; 6 days
Outline: as §1

[23] = test system: HUH1; settings: Homo sapiens, HuH-1, 144 h; HUH1 liver cancer cell line; 6 days
Outline: as §1

## Cc1ccc(F)c(NC(=O)Nc2ccc(-c3cccc4[nH]nc(N)c34)cc2)c1 [Linifanib, reference compound]
[1]
  pIC50: 7.70
[2]
  pIC50: 5.72
[3]
  pIC50: 5.76
[4]
  pIC50: 5.18
[5]
  pIC50: 5.31
[6]
  pIC50: 4.92
[7]
  pIC50: 5.39
[8]
  pIC50: 5.41
[9]
  pIC50: 5.75
[10]
  pIC50: 4.96
[11]
  pIC50: 5.03
[12]
  pIC50: 5.86
[13]
  pIC50: 8.00
[14]
  pIC50: 5.44
[15]
  pIC50: 4.99
[16]
  pIC50: 4.82
[17]
  pIC50: 5.56
[18]
  pIC50: 5.27
[19]
  pIC50: 5.39
[20]
  pIC50: < 4.52
[21]
  pIC50: 5.35
[22]
  pIC50: 5.73
[23]
  pIC50: 5.49

## Cc1ccc(F)c(NC(=O)Nc2ccc(-c3cccc4c3c(N)nn4C(=O)CCCCCNC(=O)C[C@H](N)C(=O)N[C@@H](CCC(=O)N[C@@H](CCC(=O)N[C@@H](CCC(=O)N[C@@H](CCC(=O)N[C@@H](CCC(=O)N[C@@H](CCC(=O)N[C@@H](CCC(=O)N[C@@H](CCC(=O)N[C@@H](CCC(=O)O)C(=O)O)C(=O)O)C(=O)O)C(=O)O)C(=O)O)C(=O)O)C(=O)O)C(=O)O)C(=O)O)cc2)c1 [Compound 6]
[1]
  pIC50: 5.15
[2]
  pIC50: < 4.00
[3]
  pIC50: 4.14
[4]
  pIC50: < 4.00
[5]
  pIC50: < 4.00
[6]
  pIC50: < 4.00
[7]
  pIC50: < 4.00
[8]
  pIC50: 4.16
[9]
  pIC50: < 4.00
[10]
  pIC50: 4.13
[11]
  pIC50: < 4.00
[12]
  pIC50: 4.15
[13]
  pIC50: 5.31
[14]
  pIC50: 4.09
[15]
  pIC50: < 4.00
[16]
  pIC50: < 4.00
[17]
  pIC50: < 4.00
[18]
  pIC50: < 4.00
[19]
  pIC50: < 4.00
[20]
  pIC50: 4.05
[21]
  pIC50: < 4.00
[22]
  pIC50: 4.21
[23]
  pIC50: < 4.00

## Cc1ccc(F)c(NC(=O)Nc2ccc(-c3cccc4c3c(N)nn4C(=O)C[C@H](N)C(=O)N[C@@H](CCC(=O)O)C(=O)O)cc2)c1 [Compound 1]
[1]
  pIC50: 7.40
[2]
  pIC50: 5.58
[3]
  pIC50: 5.05
[4]
  pIC50: 4.94
[5]
  pIC50: 5.28
[6]
  pIC50: 5.09
[7]
  pIC50: 5.26
[8]
  pIC50: 5.70
[9]
  pIC50: 5.11
[10]
  pIC50: 5.40
[11]
  pIC50: 5.04
[12]
  pIC50: 5.72
[13]
  pIC50: 7.29
[14]
  pIC50: 5.40
[15]
  pIC50: 5.28
[16]
  pIC50: 4.70
[17]
  pIC50: 5.55
[18]
  pIC50: 5.31
[19]
  pIC50: 5.52
[20]
  pIC50: 6.89
[21]
  pIC50: 5.83
[22]
  pIC50: 5.50
[23]
  pIC50: 5.35

## Cc1ccc(F)c(NC(=O)Nc2ccc(-c3cccc4c3c(N)nn4C(=O)CCCCCNC(=O)C[C@H](N)C(=O)N[C@@H](CCC(=O)N[C@@H](CCC(=O)N[C@@H](CCC(=O)N[C@@H](CCC(=O)O)C(=O)O)C(=O)O)C(=O)O)C(=O)O)cc2)c1 [Compound 5]
[1]
  pIC50: 5.46
[2]
  pIC50: < 4.00
[3]
  pIC50: 4.32
[4]
  pIC50: < 4.00
[5]
  pIC50: < 4.00
[6]
  pIC50: < 4.00
[7]
  pIC50: < 4.00
[8]
  pIC50: 4.27
[9]
  pIC50: < 4.00
[10]
  pIC50: 4.25
[11]
  pIC50: < 4.00
[12]
  pIC50: 4.34
[13]
  pIC50: 5.49
[14]
  pIC50: 4.19
[15]
  pIC50: < 4.00
[16]
  pIC50: < 4.00
[17]
  pIC50: < 4.00
[18]
  pIC50: < 4.00
[19]
  pIC50: 4.10
[20]
  pIC50: 4.14
[21]
  pIC50: < 4.00
[22]
  pIC50: 4.31
[23]
  pIC50: 4.08
